# According to ChEMBL document CHEMBL1157915, “Bivalent beta-carbolines as potential multitarget anti-Alzheimer agents” (J Med Chem, 2010):
# Values joined by “and” are separate entries in the source; they are usually repeats but may differ in a detail not shown here. Identical values can stand only once.
# Legend:
# [1] = Cytotoxicity against mouse L12-G10 cells at 50 uM by MTT assay; assay type: cell-based; conditions: l12-g10, 50 µM
# [2] = target: Acetylcholinesterase (Electrophorus electricus, UniProt O42275)
# Chain of Acetylcholinesterase (O42275 whole entry): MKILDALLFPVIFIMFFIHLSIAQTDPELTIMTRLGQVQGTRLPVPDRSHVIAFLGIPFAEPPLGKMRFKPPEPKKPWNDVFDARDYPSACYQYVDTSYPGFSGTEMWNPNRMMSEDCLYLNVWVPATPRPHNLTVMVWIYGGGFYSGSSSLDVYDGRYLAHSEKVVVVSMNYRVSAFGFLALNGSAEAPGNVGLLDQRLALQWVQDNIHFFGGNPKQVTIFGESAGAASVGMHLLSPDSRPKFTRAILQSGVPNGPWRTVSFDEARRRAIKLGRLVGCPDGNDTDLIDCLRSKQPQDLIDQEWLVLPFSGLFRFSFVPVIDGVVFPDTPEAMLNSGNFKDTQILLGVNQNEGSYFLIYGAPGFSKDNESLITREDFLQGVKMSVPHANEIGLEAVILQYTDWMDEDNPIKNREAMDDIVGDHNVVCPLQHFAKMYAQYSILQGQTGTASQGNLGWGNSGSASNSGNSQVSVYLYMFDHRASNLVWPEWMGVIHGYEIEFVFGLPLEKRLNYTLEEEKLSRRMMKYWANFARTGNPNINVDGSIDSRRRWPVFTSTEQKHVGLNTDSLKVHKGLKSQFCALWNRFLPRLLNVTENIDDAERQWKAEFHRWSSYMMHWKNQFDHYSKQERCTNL
# Description: Inhibition of electric eel AChE by modified Ellman's method
# [3] = Cytotoxicity against mouse L12-G10 cells by MTT assay; assay type: cell-based
# [4] = target: Cholinesterase (Equus caballus, UniProt P81908)
# Chain of Cholinesterase (P81908 whole entry): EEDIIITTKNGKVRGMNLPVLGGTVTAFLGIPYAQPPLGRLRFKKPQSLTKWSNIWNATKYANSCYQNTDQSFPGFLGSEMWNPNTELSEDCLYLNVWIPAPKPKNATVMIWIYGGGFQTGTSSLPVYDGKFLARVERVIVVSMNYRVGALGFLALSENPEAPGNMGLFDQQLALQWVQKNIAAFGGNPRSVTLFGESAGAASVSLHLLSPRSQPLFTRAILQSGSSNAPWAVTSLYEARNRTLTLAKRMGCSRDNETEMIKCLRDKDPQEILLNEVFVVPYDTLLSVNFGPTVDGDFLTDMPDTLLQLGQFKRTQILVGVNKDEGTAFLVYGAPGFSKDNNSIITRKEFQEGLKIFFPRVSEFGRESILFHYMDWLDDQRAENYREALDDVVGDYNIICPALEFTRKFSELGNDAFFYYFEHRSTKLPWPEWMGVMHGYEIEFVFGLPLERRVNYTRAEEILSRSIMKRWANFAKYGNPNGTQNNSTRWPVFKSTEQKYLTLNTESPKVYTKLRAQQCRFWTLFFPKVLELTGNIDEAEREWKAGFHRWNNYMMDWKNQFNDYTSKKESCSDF
# Description: Inhibition of equine serum BChE by modified Ellman's method
# [5] = target: Glutamate NMDA receptor; GRIN1/GRIN2B (Homo sapiens, UniProt Q05586+Q13224); assay: Displacement of [3H]ifenprodil from human NR1-1a/NR2B receptor expressed in mouse L13-E6 cells; assay type: cell-based
# Chain of Glutamate NMDA receptor; GRIN1/GRIN2B (Q13224 whole entry, other chains not shown): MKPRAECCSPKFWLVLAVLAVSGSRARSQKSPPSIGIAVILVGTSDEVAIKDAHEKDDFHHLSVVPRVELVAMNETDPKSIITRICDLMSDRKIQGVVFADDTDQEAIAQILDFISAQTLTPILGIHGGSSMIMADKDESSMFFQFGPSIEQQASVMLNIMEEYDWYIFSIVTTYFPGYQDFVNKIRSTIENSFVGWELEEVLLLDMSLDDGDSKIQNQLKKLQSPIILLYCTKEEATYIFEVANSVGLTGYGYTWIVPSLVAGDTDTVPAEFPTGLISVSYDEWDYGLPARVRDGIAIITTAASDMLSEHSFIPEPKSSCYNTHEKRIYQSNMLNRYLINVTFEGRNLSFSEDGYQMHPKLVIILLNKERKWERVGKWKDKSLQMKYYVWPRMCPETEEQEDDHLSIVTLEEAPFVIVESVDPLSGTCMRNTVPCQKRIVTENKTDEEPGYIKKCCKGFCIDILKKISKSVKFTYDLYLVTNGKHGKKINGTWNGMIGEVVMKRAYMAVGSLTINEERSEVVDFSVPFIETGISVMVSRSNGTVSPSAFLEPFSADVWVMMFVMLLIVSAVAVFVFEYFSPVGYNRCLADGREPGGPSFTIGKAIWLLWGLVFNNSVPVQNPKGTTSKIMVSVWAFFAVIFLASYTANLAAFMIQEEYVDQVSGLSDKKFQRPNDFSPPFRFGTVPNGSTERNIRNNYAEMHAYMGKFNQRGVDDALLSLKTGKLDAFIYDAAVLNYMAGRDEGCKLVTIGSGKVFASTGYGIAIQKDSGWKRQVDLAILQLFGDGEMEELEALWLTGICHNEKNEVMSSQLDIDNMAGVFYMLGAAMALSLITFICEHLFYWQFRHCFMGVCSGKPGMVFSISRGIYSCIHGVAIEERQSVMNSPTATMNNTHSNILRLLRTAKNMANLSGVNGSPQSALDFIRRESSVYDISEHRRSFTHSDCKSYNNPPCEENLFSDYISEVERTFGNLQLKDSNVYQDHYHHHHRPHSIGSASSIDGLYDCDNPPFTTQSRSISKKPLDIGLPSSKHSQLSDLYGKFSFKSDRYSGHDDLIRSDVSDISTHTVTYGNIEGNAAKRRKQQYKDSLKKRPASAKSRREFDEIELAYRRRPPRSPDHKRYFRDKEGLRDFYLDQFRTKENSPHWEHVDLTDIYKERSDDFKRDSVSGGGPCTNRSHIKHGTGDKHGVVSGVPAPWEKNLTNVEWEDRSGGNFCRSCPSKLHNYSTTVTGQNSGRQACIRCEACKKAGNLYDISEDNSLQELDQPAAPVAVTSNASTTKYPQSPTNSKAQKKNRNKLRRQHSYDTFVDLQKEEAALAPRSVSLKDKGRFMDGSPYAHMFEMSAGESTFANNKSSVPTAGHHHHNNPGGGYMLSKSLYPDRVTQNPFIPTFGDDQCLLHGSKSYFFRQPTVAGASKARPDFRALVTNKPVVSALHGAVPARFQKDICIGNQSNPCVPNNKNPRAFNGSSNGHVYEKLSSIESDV
# [6] = target: Glutamate NMDA receptor; GRIN1/GRIN2A (Homo sapiens) (UniProt Q05586+Q12879); conditions: L12-G10, 100 uM
# Description: Inhibition of dexamethasone-induced human NR1-1a/NR2A receptor-mediated excitotoxicity in (S)-glutamate/glycine-stimulated mouse L12-G10 cells assessed as LDH release at 100 uM after 30 mins
SMILES,Activity [1],IC50 [2],CC50 [3],IC50 [4],Ki [5],inhibition [6]
[Br-].[Br-].c1ccc2c(c1)[nH]c1c[n+](CCCCCCCCCC[n+]3ccc4c(c3)[nH]c3ccccc34)ccc12,67.5%,0.063 µM,> 100 µM,0.049 µM,–,–
c1ccc2c3c([nH]c2c1)CN(CCCCCN1CCc2c([nH]c4ccccc24)C1)CC3,–,> 1 µM,–,> 1 µM,–,–
c1ccc2c(c1)c1ccncc1n2CCCCCn1c2ccccc2c2ccncc21,–,> 10 µM,–,> 1 µM,–,–
c1cc[n+](CCCCCC[n+]2ccc3c(c2)[nH]c2ccccc23)cc1,–,0.564 µM,–,6.33 µM,–,–
[Br-].[Br-].c1ccc2c(c1)[nH]c1c[n+](CCCCC[n+]3ccc4c(c3)[nH]c3ccccc34)ccc12,92.4%,0.595 µM,> 100 µM,0.0489 µM and 0.048 µM,–,–
[Br-].[Br-].c1ccc2c(c1)[nH]c1c[n+](CCCCCCCC[n+]3ccc4c(c3)[nH]c3ccccc34)ccc12,51.8%,0.113 µM,54.2 µM,0.075 µM,–,–
C[n+]1ccc2c3ccccc3n(CCCCCCCCCCCCn3c4ccccc4c4cc[n+](C)cc43)c2c1.[I-].[I-],52.9%,0.0012 µM,33.8 µM,0.004 µM,–,–
[Br-].[Br-].c1ccc2c(c1)[nH]c1c[n+](Cc3ccc(C[n+]4ccc5c(c4)[nH]c4ccccc45)cc3)ccc12,83.2%,0.147 µM,> 100 µM,0.439 µM and 0.473 µM,–,–
CCC[n+]1ccc2c(c1)[nH]c1ccccc12,–,0.845 µM,–,2.31 µM,–,–
c1ccc2c(c1)c1ccncc1n2CCCCCCCCCCCCn1c2ccccc2c2ccncc21,100.2%,> 10 µM,> 100 µM,> 10 µM,–,–
CNC1(c2ccccc2Cl)CCCCC1=O (centres undefined) [KETAMINE],99.8%,> 10 µM,> 100 µM,> 10 µM,–,–
[Br-].[Br-].c1ccc2c(c1)[nH]c1c[n+](CCC[n+]3ccc4c(c3)[nH]c3ccccc34)ccc12,82.5%,7.66 µM,> 100 µM,0.652 µM,–,–
CCn1c2ccccc2c2ccncc21,–,> 1 µM,–,> 10 µM,–,–
C[n+]1ccc2c3ccccc3n(CCCCCCCCCn3c4ccccc4c4cc[n+](C)cc43)c2c1.[I-].[I-],78.9%,–,> 100 µM,–,–,–
CCn1c2ccccc2c2cc[n+](C)cc21,–,2.57 µM,–,2.02 µM,–,–
C[C@]12N[C@H](Cc3ccccc31)c1ccccc12 [DIZOCILPINE],100.3%,–,> 100 µM,–,–,–
C[n+]1ccc2c(c1)[nH]c1ccccc12,–,> 10 µM,–,0.54 µM,–,–

SMILES,Activity [1],IC50 [2],CC50 [3],IC50 [4],Ki [5],inhibition [6]
[Br-].[Br-].c1ccc2c(c1)[nH]c1c[n+](CCCC[n+]3ccc4c(c3)[nH]c3ccccc34)ccc12,78.2%,0.278 µM,> 100 µM,0.078 µM,–,–
COc1ccc2[nH]c3c[n+](CCCCC[n+]4ccc5c(c4)[nH]c4ccc(OC)cc45)ccc3c2c1.[Br-].[Br-],84.1%,> 10 µM,> 100 µM,0.319 µM,–,–
[Br-].[Br-].c1ccc2c(c1)[nH]c1c[n+](CCOCCOCCOCC[n+]3ccc4c(c3)[nH]c3ccccc34)ccc12,98.6%,3.14 µM,> 100 µM,0.195 µM,–,–
[Br-].[Br-].c1ccc2c(c1)[nH]c1c[n+](CCCCCCCCCCC[n+]3ccc4c(c3)[nH]c3ccccc34)ccc12,60.3%,0.092 µM,> 100 µM,0.018 µM,–,–
c1ccc2c3c([nH]c2c1)CN(CCCCCCCCCCN1CCc2c([nH]c4ccccc24)C1)CC3,–,> 1 µM,–,2.9 µM,–,–
c1cc[n+](CCCCCC[n+]2ccccc2)cc1,–,> 10 µM,–,> 10 µM,–,–
C[n+]1ccc2c3ccccc3n(CCCCCn3c4ccccc4c4cc[n+](C)cc43)c2c1,–,0.28 µM,–,0.019 µM,–,–
[Br-].[Br-].c1ccc2c(c1)[nH]c1c[n+](CCCCCC[n+]3ccc4c(c3)[nH]c3ccccc34)ccc12,75%,0.248 µM,> 100 µM,0.186 µM,20 µM,–
[Br-].[Br-].c1ccc2c(c1)[nH]c1c[n+](CCCCCCC[n+]3ccc4c(c3)[nH]c3ccccc34)ccc12,80.1%,0.081 µM,> 100 µM,0.065 µM,–,–
[Br-].[Br-].c1ccc2c(c1)[nH]c1c[n+](CCCCCCCCC[n+]3ccc4c(c3)[nH]c3ccccc34)ccc12,73.8%,0.125 µM,> 100 µM,0.04 µM,–,–
[Br-].[Br-].c1ccc2c(c1)[nH]c1c[n+](CCCCCCCCCCCC[n+]3ccc4c(c3)[nH]c3ccccc34)ccc12,38%,0.086 µM,35.1 µM,0.022 µM,–,–
Oc1ccc2[nH]c3c[n+](CCCCC[n+]4ccc5c(c4)[nH]c4ccc(O)cc45)ccc3c2c1.[Br-].[Br-],71.8%,4.26 µM,> 100 µM,1.63 µM,–,–
[Br-].[Br-].c1ccc2c(c1)[nH]c1c[n+](CC[n+]3ccc4c(c3)[nH]c3ccccc34)ccc12,76.6%,0.43 µM,> 100 µM,0.319 µM,–,–
CC12CC3CC(C)(C1)CC(N)(C3)C2 [MEMANTINE],100.4%,> 10 µM,> 100 µM,> 10 µM,–,–
c1ccc2c(c1)c1ccncc1n2CCCCCCCCCn1c2ccccc2c2ccncc21,67.7%,–,> 100 µM,–,–,–
NCCCNCCCCNCCCN,–,–,–,–,–,108%
